Measured values as given in US5688787A, “Substituted β-lactam compounds useful as hypochlesterolemic agents and processes for the preparation thereof” (priority 1996, dated 1997).
Where two headings read alike, the source gives them in different places.

What was measured:
ACAT = molecular target: T1, ACAT (Rattus norvegicus, UniProt Q7TQM4); test: ACAT Assay (in vitro); assay type: biochemical; conditions: for inhibition at 10 µM: Conc. 10 µM; for IC50: rat liver microsomes, read-out: ACAT (in vitro) IC50
T1 construct: Rat liver microsomes are used as the source of ACAT; from tissue; host or cells: rat liver microsomes
T1 sequence (Q7TQM4 1-524): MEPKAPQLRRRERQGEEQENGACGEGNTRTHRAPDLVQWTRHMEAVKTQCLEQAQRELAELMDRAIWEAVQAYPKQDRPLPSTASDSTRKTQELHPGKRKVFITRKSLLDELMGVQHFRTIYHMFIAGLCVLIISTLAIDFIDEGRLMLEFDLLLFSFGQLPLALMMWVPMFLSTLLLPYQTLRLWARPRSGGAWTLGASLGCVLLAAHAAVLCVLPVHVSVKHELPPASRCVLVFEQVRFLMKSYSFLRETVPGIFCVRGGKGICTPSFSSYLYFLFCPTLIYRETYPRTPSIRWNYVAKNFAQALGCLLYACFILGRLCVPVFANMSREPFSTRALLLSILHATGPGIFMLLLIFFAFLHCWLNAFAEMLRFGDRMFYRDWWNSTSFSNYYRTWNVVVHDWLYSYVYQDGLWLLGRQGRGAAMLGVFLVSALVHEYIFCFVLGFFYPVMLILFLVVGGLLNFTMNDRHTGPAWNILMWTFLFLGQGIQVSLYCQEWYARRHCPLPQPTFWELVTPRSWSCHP

Hyperlipidemic Hamster = test: In Vivo Assay of Hypolipidemic Agents Using the Hyperlipidemic Hamster; conditions: Mesocricetus auratus, po, 168 h, 7 days, percent change versus control, negative = lowering; for change in vivo at 100 mg/kg: 100 mg/kg once daily oral; for change in vivo at 50 mg/kg: 50 mg/kg once daily oral
How it was run: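 Test compound in corn oil was given orally once daily for seven days, starting with a 0.5% cholesterol diet, to groups of six hamsters; corn oil alone served as control. Plasma and hepatic lipids were analysed after decapitation. Results are expressed as percent change relative to control.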

[1] = read-out: % Reduction (in vivo) Cholest. Esters
[2] = read-out: % Reduction (in vivo) Serum Cholest.
[3] = negative = apparent stimulation, read-out: ACAT (in vitro) % Inhib.

| Structure (SMILES) | inhibition at 25 µM (ACAT; Conc. 25 µM, negative = apparent stimulation, read-out: ACAT (in vitro) % Inhib.) [%] | change in vivo at 100 mg/kg (Hyperlipidemic Hamster; [1]) [%] | change in vivo at 100 mg/kg (Hyperlipidemic Hamster; [2]) [%] | inhibition at 10 µM (ACAT; [3]) [%] | change in vivo at 50 mg/kg (Hyperlipidemic Hamster; [1]) [%] | change in vivo at 50 mg/kg (Hyperlipidemic Hamster; [2]) [%] | IC50 (ACAT) [µM] |
| --- | --- | --- | --- | --- | --- | --- | --- |
| COc1ccc(N2C(=O)[C@](C(=O)Cc3ccccc3)(c3ccccc3)[C@@H]2c2ccccc2)cc1 (relative stereo) [Example 1A] | 83 | -26 | -10 |  |  |  |  |
| COc1ccc(N2C(=O)[C@H](CCCc3ccccc3)[C@@H]2c2ccc(OC)c(OC)c2)cc1 (relative stereo) [Example 1BB] |  |  |  | -16 | 0 | 0 |  |
| COc1ccc(N2C(=O)[C@H](CCCc3ccccc3)[C@@H]2c2ccco2)cc1 (relative stereo) [Example 1BC] |  |  |  | -2 | 0 | 0 |  |
| COc1ccc(N2C(=O)[C@H](CCCc3ccccc3)[C@H]2c2ccco2)cc1 (relative stereo) [Example 1BD] |  |  |  | 17 | -25 | 0 |  |
| COc1ccc(N2C(=O)[C@H](CCCc3ccccc3)[C@@H]2c2ccoc2)cc1 (relative stereo) [Example 1BE] |  |  |  | 30 | -21 | -10 |  |
| COc1ccc(N2C(=O)[C@H](CCCc3ccccc3)[C@H]2c2ccoc2)cc1 (relative stereo) [Example 1BF] |  |  |  | -17 | -23 | 0 |  |
| COc1ccc(N2C(=O)[C@H](CCCc3ccccc3)[C@H]2c2ccc(C(F)(F)F)cc2)cc1 (relative stereo) [Example 1BG] |  |  |  | 3 | 0 | 12 |  |
| COc1ccc(N2C(=O)[C@H](CCCc3ccccc3)[C@@H]2c2ccc(C(F)(F)F)cc2)cc1 (relative stereo) [Example 1BH] |  |  |  | 50 | 0 | 0 |  |
| COc1ccc(N2C(=O)[C@H](CCCc3ccccc3)[C@@H]2c2cccs2)cc1 (relative stereo) [Example 1BI] |  |  |  | 59 | -45 | -17 |  |
| COc1ccc(N2C(=O)[C@H](CCCc3ccccc3)[C@@H]2c2ccsc2)cc1 (relative stereo) [Example 1BJ] |  |  |  | 56 | 0 | 0 |  |
| COc1ccc(N2C(=O)[C@H](CCCc3ccccc3)[C@@H]2c2cccc(OC(F)(F)F)c2)cc1 (relative stereo) [Example 1BK] |  |  |  | 55 | 0 | 0 |  |
| COc1ccc(N2C(=O)[C@@H](CCCc3ccccc3)[C@@H]2c2cccc(OC(F)(F)F)c2)cc1 (relative stereo) [Example 1BL] |  |  |  | 42 | 0 | -10 |  |
| COc1ccc(N2C(=O)[C@H](CCCc3ccccc3)[C@@H]2c2ccc(C)cc2)cc1 (relative stereo) [Example 1BM] |  |  |  | 38 | -21 | 0 |  |
| COc1ccc(N2C(=O)[C@H](CCCc3ccccc3)[C@@H]2c2ccc(OCc3ccccc3)cc2)cc1 (relative stereo) [Example 1BN] |  |  |  |  | 0 | -16 | 7 |
| CCOc1ccc([C@H]2[C@@H](CCCc3ccccc3)C(=O)N2c2ccc(OC)cc2)cc1 (relative stereo) [Example 1BO] |  |  |  | 79 | -93 | -48 | 5.4 |
| COc1ccc(N2C(=O)[C@@H](CCCc3ccccc3)[C@@H]2c2ccsc2)cc1 (relative stereo) [Example 1BP] |  |  |  | 58 | 0 | -9 |  |

| Structure (SMILES) | inhibition at 25 µM (ACAT; Conc. 25 µM, negative = apparent stimulation, read-out: ACAT (in vitro) % Inhib.) [%] | change in vivo at 100 mg/kg (Hyperlipidemic Hamster; [1]) [%] | change in vivo at 100 mg/kg (Hyperlipidemic Hamster; [2]) [%] | inhibition at 10 µM (ACAT; [3]) [%] | change in vivo at 50 mg/kg (Hyperlipidemic Hamster; [1]) [%] | change in vivo at 50 mg/kg (Hyperlipidemic Hamster; [2]) [%] | IC50 (ACAT) [µM] |
| --- | --- | --- | --- | --- | --- | --- | --- |
| COc1ccc(N2C(=O)[C@@H](CCCc3ccccc3)[C@@H]2c2cccs2)cc1 (relative stereo) [Example 1BQ] |  |  |  | 35 | -17 | 0 |  |
| COc1ccc(N2C(=O)[C@H](CCCc3ccccc3)[C@@H]2c2ccccc2)cc1 (relative stereo) [Example 1B] |  |  |  | 28 | 0 | 0 |  |
| COc1ccc([C@H]2[C@@H](CCc3ccccc3)C(=O)N2c2ccc(OC)cc2)cc1 (relative stereo) [Example 1CC] |  |  |  | 46 | 0 | 0 |  |
| COc1ccc([C@H]2[C@@H](CCOc3ccccc3)C(=O)N2c2ccc(OC)cc2)cc1 (relative stereo) [Example 1CD] |  |  |  | 84 | -23 | 0 | 7 |
| COc1ccc([C@H]2[C@@H](CCCCCCc3ccccc3)C(=O)N2c2ccc(OC)cc2)cc1 (relative stereo) [Example 1CE] |  |  |  | 15 | -17 | -19 |  |
| COc1ccc([C@H]2[C@@H](CCCC3CCCCC3)C(=O)N2c2ccc(OC)cc2)cc1 (relative stereo) [Example 1CF] |  |  |  | 53 | -47 | -23 |  |
| COc1ccc([C@H]2[C@@H](CCOc3ccc(F)cc3)C(=O)N2c2ccc(OC)cc2)cc1 (relative stereo) [Example 1CG] |  |  |  | 8 | -61 | -30 |  |
| COc1ccc([C@H]2[C@@H](CCCCc3ccccc3)C(=O)N2c2ccc(OC)cc2)cc1 (relative stereo) [Example 1CI] |  |  |  | 26 | -23 | -8 |  |
| CC[C@@]1(c2ccccc2)C(=O)N(c2ccc(OC)cc2)[C@H]1c1ccc(OC)cc1 (relative stereo) [Example 1CK] |  |  |  | -12 | -28 | 0 |  |
| CCCCCCCCCC[C@@H]1C(=O)N(c2ccc(OC)cc2)[C@@H]1c1ccc(OC)cc1 (relative stereo) [Example 1CL] |  |  |  | 89 | -18 | 0 |  |
| COc1ccc(N2C(=O)[C@H](CCCc3ccccc3)[C@@H]2c2ccc3c(c2)OCO3)cc1 (relative stereo) [Example 1CN] |  |  |  | -28 | 0 | 0 |  |
| COc1ccc(N2C(=O)[C@@H](CCCc3ccccc3)[C@@H]2c2ccccc2)cc1 (relative stereo) [Example 1C] |  |  |  | 22 | -15 | -6 |  |
| COc1ccc(N2C(=O)[C@@H](CCc3ccccc3)[C@H]2c2ccccc2)cc1 (relative stereo) [Example 1D] |  |  |  | 39 | 0 | 0 |  |
| COc1ccc(N2C(=O)[C@@H](CCCc3ccccc3)[C@@H]2c2ccc([N+](=O)[O-])cc2)cc1 (relative stereo) [Example 1G] |  |  |  | 21 | 0 | -11 |  |
| COc1ccc(N2C(=O)[C@H](CCCc3ccccc3)[C@@H]2c2ccc([N+](=O)[O-])cc2)cc1 (relative stereo) [Example 1H] |  |  |  | 57 | -51 | -21 |  |
